Measurements from ChEMBL document CHEMBL3758112, “Synthesis and pharmacological evaluation of trifluoromethyl containing 4-(2-pyrimidinylamino)benzamides as Hedgehog signaling pathway inhibitors” (Bioorg Med Chem, 2016).

How the values were obtained:
[1] = Inhibition of hedgehog signalling in mouse NIH3T3 cells stably transfected with Gli-luciferase construct incubated for 48 hrs by dual luciferase reporter gene assay; type: cell-based; conditions: NIH3T3, 48 h
[2] = AUC (0 to t) in Sprague-Dawley rat at 1 mg/kg, iv measured during 2 mins to 24 hrs period post dose by LC-MS/MS method; type: ADME, organism-based; parameters: time 0.033-24 hr, dose 1 mg/kg, route intravenous; conditions: in vivo
[3] = Apparent volume of distribution in Sprague-Dawley rat at 1 mg/kg, iv measured during 2 mins to 24 hrs period post dose by LC-MS/MS method; type: ADME, organism-based; conditions: in vivo, read-out: Vz
[4] = Half life in Sprague-Dawley rat at 1 mg/kg, iv measured during 2 mins to 24 hrs period post dose by LC/MS/MS method; type: ADME, organism-based; conditions: in vivo
[5] = Mean residence time (0 to t) in Sprague-Dawley rat at 1 mg/kg, iv measured during 2 mins to 24 hrs period post dose by LC/MS/MS method; type: ADME, organism-based; conditions: in vivo
[6] = Clearance in Sprague-Dawley rat at 1 mg/kg, iv measured during 2 mins to 24 hrs period post dose by LC-MS/MS method; type: ADME, organism-based; conditions: in vivo
[7] = Cmax in Sprague-Dawley rat at 1 mg/kg, iv measured during 2 mins to 24 hrs period post dose by LC-MS/MS method; type: ADME, organism-based; parameters: dose 1 mg/kg, route intravenous; conditions: in vivo
NIH3T3 = assay: Potency index, ratio of vismodegib IC50 to compound IC50 for inhibition of hedgehog signalling in mouse NIH3T3 cells stably transfected with Gli-luciferase construct; type: cell-based

`CCn1cc(-c2nc(Nc3ccc(C(=O)Nc4cc(CN5CCOCC5)ccc4C)cc3)ncc2C(F)(F)F)cn1` showed an IC50 [1] of 0.0169 µM.

`Cc1ccc(CN2CCCCC2)cc1NC(=O)c1ccc(Nc2ncc(C(F)(F)F)c(-c3ccc(OC(F)(F)F)cc3)n2)cc1` gave an IC50 [1] of 0.00312 µM.

With `Cc1ccc(CN2CCOCC2)cc1NC(=O)c1ccc(Nc2ncc(C(F)(F)F)c(-c3cnn(C)c3)n2)cc1` the IC50 [1] was 0.0245 µM.

`CCN1CCN(Cc2ccc(C)c(NC(=O)c3ccc(Nc4ncc(C(F)(F)F)c(-c5ccc(OC(F)(F)F)cc5)n4)cc3)c2)CC1` showed an IC50 [1] of 0.0628 µM.

`CS(=O)(=O)c1ccc(C(=O)Nc2ccc(Cl)c(-c3ccccn3)c2)c(Cl)c1` [VISMODEGIB] showed an IC50 [1] of 0.0072 µM and an AUC(0-t) [2] of 2460 ng·h/mL.

In the case of `Cc1ccc(CN2CCOCC2)cc1NC(=O)c1ccc(Nc2ncc(C(F)(F)F)c(-c3cccnc3)n2)cc1`, the IC50 [1] is reported as 0.0562 µM.

In the case of `Cc1ccc(CN(C)C)cc1NC(=O)c1ccc(Nc2ncc(C(F)(F)F)c(-c3ccc(OC(F)(F)F)cc3)n2)cc1`, the IC50 [1] is reported as 0.0182 µM.

With `Cc1ccc(CN(C)C)cc1NC(=O)c1ccc(Nc2ncc(C(F)(F)F)c(-c3ccccc3)n2)cc1` the IC50 [1] was 0.0249 µM.

With `Cc1ccc(CN2CCN(C)CC2)cc1NC(=O)c1ccc(Nc2ncc(C(F)(F)F)c(-c3ccc(OC(F)(F)F)cc3)n2)cc1` the Vd [3] was 9.22 L/kg, the half-life [4] was 9.25 h and the IC50 [1] was 0.00519 µM. It also gave an MRT last [5] of 7.15 h, a clearance [6] of 11.6 mL/min/kg and an AUC(0-t) [2] of 1240 ng·h/mL. For the same compound, the Cmax [7] was 844 ng/mL.

Compound `Cc1ccc(CN2CCOCC2)cc1NC(=O)c1ccc(Nc2ncc(C(F)(F)F)c(-c3ccccc3)n2)cc1` has a Vd [3] of 4.13 L/kg, a half-life [4] of 2.32 h and an IC50 [1] of 0.102 µM. For the same compound, the MRT last [5] was 1.23 h, the clearance [6] was 20.9 mL/min/kg and the AUC(0-t) [2] was 807 ng·h/mL. For the same compound, the Cmax [7] was 1190 ng/mL.

For `Cc1ccc(CN2CCOCC2)cc1NC(=O)c1ccc(Nc2ncc(C(F)(F)F)c(-c3ccccn3)n2)cc1`, the Vd [3] was 1.8 L/kg, the half-life [4] was 1.03 h and the IC50 [1] was 0.0142 µM. The MRT last [5] was 0.93 h, the clearance [6] was 20.1 mL/min/kg and the AUC(0-t) [2] was 826 ng·h/mL. It also gave a Cmax [7] of 1420 ng/mL.

Work on `COc1ccc(-c2nc(Nc3ccc(C(=O)Nc4cc(CN5CCCC5)ccc4C)cc3)ncc2C(F)(F)F)cn1` yielded an IC50 [1] of 0.00935 µM.

Compound `Cc1ccc(CN2CCCC2)cc1NC(=O)c1ccc(Nc2ncc(C(F)(F)F)c(-c3cnn(C)c3)n2)cc1` has an IC50 [1] of 0.0263 µM.

In the case of `O=C(NC1CCN(C(=O)CO)CC1)c1ccc(Nc2ncc(C(F)(F)F)c(-c3ccc(OC(F)(F)F)nc3)n2)cc1`, the IC50 [1] is reported as over 0.5 µM.

With `Cc1ccc(CN2CCOCC2)cc1NC(=O)c1ccc(Nc2ncc(C(F)(F)F)c(-c3ccc(C#N)cc3)n2)cc1` the IC50 [1] was 0.00424 µM.

`Cc1ccc(CN2CCCC2)cc1NC(=O)c1ccc(Nc2ncc(C(F)(F)F)c(-c3ccc(OC(F)(F)F)cc3)n2)cc1` gave an IC50 [1] of 0.00423 µM.

Work on `Cc1ccc(CN2CCOCC2)cc1NC(=O)c1ccc(Nc2ncc(C(F)(F)F)c(-c3ccc(OC(F)(F)F)cc3)n2)cc1` yielded a Vd [3] of 5.88 L/kg, a half-life [4] of 8.63 h and an IC50 [1] of 0.00144 µM. It also gave a Ratio IC50 (NIH3T3) of 5, an MRT last [5] of 4.95 h and a clearance [6] of 7.82 mL/min/kg. The AUC(0-t) [2] was 1960 ng·h/mL and the Cmax [7] was 2220 ng/mL.

Compound `Cc1cnc(Nc2ccc(C(=O)Nc3c(C)cccc3C)cc2)nc1-c1ccc(OC(F)(F)F)cc1` has an IC50 [1] of 0.0013 µM.

`Cc1cccc(C)c1NC(=O)c1ccc(Nc2ncc(F)c(-c3ccc(OC(F)(F)F)cc3)n2)cc1` gave an IC50 [1] of 0.0016 µM.

Work on `O=C(c1ccc(Nc2ncc(C(F)(F)F)c(-c3ccc(OC(F)(F)F)nc3)n2)cc1)N1CCCC(N2CCOCC2)C1` (stereo unspecified) yielded an IC50 [1] of over 0.5 µM.
